Results as given in US7605272B2, “IGF-1R inhibitor” (Kyowa Hakko Kirin Co., Ltd., priority 2005, dated 2009).
Structures can show the parent of a compound that is named as a salt. Where two headings read alike, the source gives them in different places.

Key:
NCI-H929 = assay: Cytostatic activity on human multiple myeloma cell line NCI-H929 (WST-1); format: cell-based; conditions: for inhibition at 1 µM / inhibition at 10 µM: Homo sapiens, NCI-H929, 72 h; for inhibition at 1 µM: read-out: cytostatic rate (%) H929 (1 μmol/L); for inhibition at 10 µM: read-out: cytostatic rate (%) H929 (10 μmol/L)
Outline: (§1)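 Cells pre-cultured 24 h at 37 °C, 5% CO2, then exposed 72 h to compound at final 1 or 10 μmol/L (0.1% DMSO). WST-1 added for 2 h, absorbance at 450 nm (ref 690 nm). Cytostatic rate = 100 minus relative growth, with DMSO control as 100% and blank as 0%.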

KMS-11 = assay: Cytostatic activity on human multiple myeloma cell line KMS-11 (WST-1); format: cell-based; conditions: for inhibition at 1 µM / inhibition at 10 µM: Homo sapiens, KMS-11, 72 h; for inhibition at 1 µM: read-out: cytostatic rate (%) KMS-11 (1 μmol/L); for inhibition at 10 µM: read-out: cytostatic rate (%) KMS-11 (10 μmol/L)
Outline: as §1

AsPC-1 = assay: Cytostatic activity on human pancreatic cancer cell line AsPC-1 (WST-1); format: cell-based; conditions: for inhibition at 10 µM: Homo sapiens, ASPC1, 72 h
Experimental: (§2) The cytostatic rates of the test compound on the human pancreatic cancer cell line AsPC-1 and the human colon cancer cell line Colo205 were determined in the following manner.
(§3) For culturing AsPC-1, RPMI 1640 medium containing 20% fetal bovine serum, 1 mmol/L sodium pyruvate, 10 mmol/L HEPES, 4.5 g/L glucose and penicillin/streptomycin (1:1). The Colo205 cell was cultured using RPMI 1640 medium containing 10% fetal bovine serum, 1 mmol/L sodium pyruvate, 10 mmol/L HEPES, 4.5 g/L glucose and penicillin/streptomycin (1:1) was used. Each 80 μL of the AsPC-1 cell having a concentration of 5×10^4 cells/mL (or the Colo205 having a concentration of 5×10^4 cells/mL) was inoculated to wells of a TC MICROWELL 96F plate (Nalge Nunc International, Catalog No. 167008) and was cultured in a 5% carbon dioxide gas incubator at 37° C. for 24 hours. Each 20 μL of a solution of the test compound in DMSO which was prepared to make the final concentration to 1 μmol/L or 10 μmol/L, was added to each well. Each 20 μL of DMSO was added to the control well and the blank well to a final concentration of 0.1%. After adding the test compound, the cell was incubated in a 5% carbon dioxide gas incubator at 37° C. for 72 hours except for the blank well. After adding 20 μL of WST-1 reagent which was diluted to 50% by RPMI medium to each well, the cells were further incubated at 37° C. for 2 hours. Then, the absorbances at 450 nm (reference wavelength: 690 nm) were determined with a microplate spectrophotometer SPECTRA max 340PC. The cytostatic rate (%) was then determined in the similar manner to the above multiple myeloma cell lines.

Colo205 = assay: Cytostatic activity on human colon cancer cell line Colo205 (WST-1); format: cell-based; conditions: for inhibition at 10 µM: Homo sapiens, COLO 205, 72 h
Experimental: as §2, §3

IGF-1R = molecular target: T1, IGF-1R (Homo sapiens, UniProt P08069); assay: IGF-1R inhibitory activity (kinase reaction, time-resolved fluoroimmunoassay); format: biochemical; conditions: test compound 10 μmol/L
T1 construct: purchased Upstate Co. 14-465
T1 sequence (P08069 959-1367 limits assumed): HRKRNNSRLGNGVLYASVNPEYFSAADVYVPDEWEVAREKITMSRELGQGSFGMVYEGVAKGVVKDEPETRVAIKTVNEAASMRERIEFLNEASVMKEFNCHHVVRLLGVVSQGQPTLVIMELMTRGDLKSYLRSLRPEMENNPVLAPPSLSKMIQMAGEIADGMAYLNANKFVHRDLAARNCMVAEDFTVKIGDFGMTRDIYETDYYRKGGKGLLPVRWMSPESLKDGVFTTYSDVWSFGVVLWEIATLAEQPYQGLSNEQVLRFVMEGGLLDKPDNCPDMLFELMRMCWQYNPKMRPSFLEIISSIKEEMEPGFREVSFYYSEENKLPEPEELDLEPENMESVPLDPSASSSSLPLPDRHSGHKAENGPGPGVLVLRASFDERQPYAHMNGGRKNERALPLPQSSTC
Outline: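 Compounds were tested at a single 10 μmol/L concentration. Each was incubated with recombinant IGF-1R (200 μg/L), 10 mmol/L ATP, MgCl2/MnCl2 and Na3VO4 (pH 7.5) on immobilized poly(Glu-Tyr) peptide for 30 min at 24° C. Eu-anti-phosphotyrosine time-resolved fluorescence (340/615 nm) gave relative activity against no-compound and no-enzyme wells, reported as % inhibition.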

[1] = 10 μmol/L, read-out: cytostatic rate (%) AsPC-1 (10 μmol/L)
[2] = 10 μmol/L, read-out: cytostatic rate (%) Colo205 (10 μmol/L)
[3] = IGF-1R active recombinant enzyme

Structure (SMILES)	inhibition at 10 µM (IGF-1R; [3])	inhibition at 1 µM (NCI-H929; 1 μmol/L, 72 hours)	inhibition at 1 µM (KMS-11; 1 μmol/L, 72 hours)	inhibition at 10 µM (AsPC-1; [1])	inhibition at 10 µM (Colo205; [2])	inhibition at 10 µM (NCI-H929; 10 μmol/L, 72 hours)	inhibition at 10 µM (KMS-11; 10 μmol/L, 72 hours)	further results
COc1cccc(/C=C/c2n[nH]c3ccccc23)c1NC(=O)c1cccn1C [Compound 109, (E)-N-{2-[2-(1H-indazol-3-yl)vinyl]-6-methoxyphenyl}-1-methyl-1H-pyrrole-2-carboxamide]				114%	123%	116%	117%	inhibition at 10 µM (IGF-1R): 103%
Cc1ccsc1C(=O)Nc1cc(CN2CCN(CCOCCO)CC2)ccc1/C=C/c1n[nH]c2ccccc12 [Compound 318, (E)-N-{5-{4-[2-(2-hydroxyethoxy)ethyl]piperazin-1-ylmethyl}-2-[2-(1H-indazol-3-yl)vinyl]-phenyl}-3-methylthiophene-2-carboxamide]	94.7%							inhibition at 1 µM (NCI-H929; NCI-H929 cells, test compound 1 μmol/L, WST-1): 122%; inhibition at 1 µM (KMS-11; KMS-11 cells, test compound 1 μmol/L, WST-1): 102%; inhibition at 10 µM (AsPC-1; AsPC-1 cells, test compound 10 μmol/L, WST-1, read-out: cytostatic rate (%) AsPC-1 (10 μmol/L)): 103%; inhibition at 10 µM (Colo205; Colo205 cells, test compound 10 μmol/L, WST-1, read-out: cytostatic rate (%) Colo205 (10 μmol/L)): 120%
Cc1ccsc1C(=O)Nc1cc(CNCCN2CCOCC2)ccc1/C=C/c1n[nH]c2ccccc12 [Compound 245, (E)-N-{2-[2-(1H-indazol-3-yl)vinyl]-5-[2-(morpholin-4-yl)ethylaminomethyl]phenyl}-3-methylthiophene-2-carboxamide]	99.9%	126%	118%	102%	121%			
Cc1ccsc1C(=O)Nc1cc(CN(CCO)CCN2CCOCC2)ccc1/C=C/c1n[nH]c2ccccc12 [Compound 253, (E)-N-{5-[N-(2-hydroxyethyl)-2-(morpholin-4-yl)ethylaminomethyl]-2-[2-(1H-indazol-3-yl)vinyl]phenyl}-3-methylthiophene-2-carboxamide]	98.7%	119%	109%	100%	122%			
Cc1ccsc1C(=O)Nc1cc(C(=O)N2CCOCC2)ccc1/C=C/c1n[nH]c2ccccc12.Cl [Compound 115, (E)-N-{2-[2-(1H-indazol-3-yl)vinyl]-5-(morpholin-4-ylcarbonyl)phenyl}-3-methylthiophene-2-carboxamide hydrochloride]								cytostatic rate (%) H929 (10 μmol/L) (NCI-H929; 10 μmol/L, 72 hours): 120.0%; cytostatic rate (%) KMS-11 (10 μmol/L) (KMS-11; 10 μmol/L, 72 hours): 115.5%; cytostatic rate (%) AsPC-1 (10 μmol/L) (AsPC-1; 10 μmol/L, 72 hours): 108.7%; cytostatic rate (%) Colo205 (10 μmol/L) (Colo205; 10 μmol/L, 72 hours): 121.6%; inhibitory activity (%) at 10 μmol/L (IGF-1R): 100.1%
Cc1ccsc1C(=O)Nc1cc(N2CCOCC2)ccc1/C=C/c1n[nH]c2ccccc12 [Compound 247, (E)-N-{2-[2-(1H-indazol-3-yl)vinyl]-5-morpholin-4-ylphenyl}-3-methylthiophene-2-carboxamide monohydrochloride]	102%	127%	133%	117%	123%			
Nc1ccc2c(c1)C(=O)N(c1cc3c(cc1/C=C/c1n[nH]c4ccccc14)OCO3)C2=O [Compound 153, (E)-5-amino-2-{6-[2-(1H-indazol-3-yl)vinyl]benzo[1,3]dioxol-5-yl}isoindole-1,3-dione]	99.8%			77%	114%	122%	129%	
CC(=O)N1CCN(Cc2ccc(/C=C/c3n[nH]c4ccccc34)c(NC(=O)c3sccc3C)c2)CC1 [Compound 269, (E)-N-{5-(4-acetylpiperazin-1-ylmethyl)-2-[2-(1H-indazol-3-yl)vinyl]phenyl}-3-methylthiophene-2-carboxamide]	101%	119%	132%					
Cc1ccsc1C(=O)Nc1cc(CN2CCC(S(C)(=O)=O)CC2)ccc1/C=C/c1n[nH]c2ccccc12 [Compound 235, (E)-N-{2-[2-(1H-indazol-3-yl)vinyl]-5-(4-methanesulfonylpiperidin-1-ylmethyl)phenyl}-3-methylthiophene-2-carboxamide]	98.3%	115%	109%					
Cc1ccsc1C(=O)Nc1cc(CN2CCN(C)CC2)ccc1/C=C/c1n[nH]c2ccccc12 [Compound 234, (E)-N-{2-[2-(1H-indazol-3-yl)vinyl]-5-(4-methylpiperazin-1-ylmethyl)phenyl}-3-methylthiophene-2-carboxamide]	102%	118%	111%					
Cc1ccsc1C(=O)Nc1cc(N2CCNCC2)ccc1/C=C/c1n[nH]c2ccccc12 [Compound 274, (E)-N-{2-[2-(1H-indazol-3-yl)vinyl]-5-piperazin-1-ylphenyl}-3-methylthiophene-2-carboxamide]	104%	114%	108%					
Cc1ccsc1C(=O)Nc1cc(CN2CCC(N(C)C)C2)ccc1/C=C/c1n[nH]c2ccccc12 (stereo not shown) [Compound 294, (E)-N-{5-[3-(dimethylamino)pyrrolidin-1-ylmethyl]-2-[2-(1H-indazol-3-yl)vinyl]phenyl}-3-methylthiophene-2-carboxamide]	98.2%	118%	116%					
Cc1ccsc1C(=O)Nc1cc(CN2CCC(N3CCOCC3)CC2)ccc1/C=C/c1n[nH]c2ccccc12 [Compound 296, (E)-N-{2-[2-(1H-indazol-3-yl)vinyl]-5-[4-(morpholin-4-yl)piperidin-1-ylmethyl]phenyl}-3-methylthiophene-2-carboxamide]	99.9%	117%	112%					

Second part, led by results:

inhibition at 10 µM (IGF-1R; [3])	Structure (SMILES)	inhibition at 1 µM (NCI-H929; 1 μmol/L, 72 hours)	inhibition at 1 µM (KMS-11; 1 μmol/L, 72 hours)	inhibition at 10 µM (AsPC-1; [1])	inhibition at 10 µM (Colo205; [2])	inhibition at 10 µM (NCI-H929; 10 μmol/L, 72 hours)	inhibition at 10 µM (KMS-11; 10 μmol/L, 72 hours)	further results
106%	Cc1ccsc1C(=O)Nc1cc(CN2CC[C@@H](N)C2)ccc1/C=C/c1n[nH]c2ccccc12 [Compound 233, (R)-(E)-N-{5-(3-aminopyrrolidin-1-ylmethyl)-2-[2-(1H-indazol-3-yl)vinyl]phenyl}-3-methylthiophene-2-carboxamide]	118%	102%	89.1%	123%			
98.9%	Cc1ccsc1C(=O)Nc1ccc(N2CCC(S(C)(=O)=O)CC2)cc1/C=C/c1n[nH]c2ccccc12 [Compound 227, (E)-N-{2-[2-(1H-indazol-3-yl)vinyl]-4-(4-methanesulfonylpiperidin-1-yl)phenyl}-3-methylthiophene-2-carboxamide hydrochloride]	113%	52.9%					
97.1%	O=C(NCc1cccs1)c1ccccc1/C=C/c1n[nH]c2ccccc12 [Compound 141, (E)-2-[2-(1H-indazol-3-yl)vinyl]-N-(thiophen-2-ylmethyl)benzamide]					114%	117%	
99.3%	Nc1ccc(C(=O)Nc2ccccc2/C=C/c2n[nH]c3ccccc23)s1 [Compound 56, (E)-5-amino-N-{2-[2-(1H-indazol-3-yl)vinyl]phenyl}thiophene-2-carboxamide]					116%	134%	
100%	COC(=O)c1c[nH]c(-c2ccccc2/C=C/c2n[nH]c3ccccc23)n1 [Compound 195, (E)-2-{2-[2-(1H-indazol-3-yl)vinyl]phenyl}-3H-imidazole-4-carboxylic acid methyl ester]					111%	97.7%	
95.4%	O=C(Nc1ccccc1/C=C/c1n[nH]c2ccccc12)C1CCCCC1 [Compound 23, (E)-N-{2-[2-(1H-indazol-3-yl)vinyl]phenyl}cyclohexanecarboxamide]					130%	109%	
